“And” between values parts separate entries of the source, which are not always exact repeats. Equal values may be shown once.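 Method: 48-hour compound exposure of cells in 96-well plates, five concentrations, linear interpolation of endpoints. Abbreviation: GI50, concentration required for 50% inhibition of growth. The concentration for full growth arrest is given as TGI.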
Assays:
Assay in all cases: inhibition of tumour cell growth, NCI panel, 48 h
HT29 colon = system: HT29 colon
HCC-2998 colon = system: HCC-2998 colon
SK-MEL-5 melanoma = system: SK-MEL-5 melanoma
SK-MEL-28 melanoma = system: SK-MEL-28 melanoma
HOP-62 NSCLC = system: HOP-62 NSCLC
NCI-H460 lung = system: NCI-H460 lung
SNB-19 CNS = system: SNB-19 CNS
KM12 colon = system: KM12 colon
IGROV1 ovarian = system: IGROV1 ovarian
M14 melanoma = system: M14 melanoma

SMILES | GI50 (HT29 colon) [µM] | TGI (HT29 colon) | GI50 (HCC-2998 colon) [µM] | TGI (HCC-2998 colon) | GI50 (SK-MEL-5 melanoma) [µM] | TGI (SK-MEL-5 melanoma) [µM] | GI50 (SK-MEL-28 melanoma) [µM] | TGI (SK-MEL-28 melanoma) | GI50 (HOP-62 NSCLC) [µM] | TGI (HOP-62 NSCLC) | GI50 (NCI-H460 lung) | TGI (NCI-H460 lung) | GI50 (SNB-19 CNS) [µM] | TGI (SNB-19 CNS) | GI50 (KM12 colon) [µM] | TGI (KM12 colon) | TGI (IGROV1 ovarian) | GI50 (IGROV1 ovarian) [µM] | GI50 (M14 melanoma) [µM] | TGI (M14 melanoma)
O=C1C(=O)c2c(ccc3ccccc23)-c2ccccc21 | 2.52 | 6.21 µM | 2.65 | 7.75 µM | 1.5 | 2.82 | 1.73 | 3.67 µM | 1.9 | 4.56 µM | 1.6 µM | 3.08 µM | 2.43 | 7.97 µM | 1.6 | 2.99 µM | – | – | – | –
Cc1cc2c(=O)cc(-c3ccncc3)oc2c(C(=O)O)c1C | – | > 100 µM | – | > 100 µM | – | – | – | > 100 µM | – | > 100 µM | – | > 100 µM | – | > 100 µM | – | – | > 100 µM | – | – | –
Clc1ccc(N=CNc2ccc(-c3nc4ccccc4[nH]3)cc2)cc1 | – | – | – | – | 39.9 | > 100 | 22.8 | 63.6 µM | > 100 | > 100 µM | 17.7 µM | > 100 µM | > 100 | > 100 µM | 0.691 | 18.5 µM | > 100 µM | > 100 | > 100 | > 100 µM
Cc1nc(-c2cccnc2)sc1C(=O)/C=C/c1ccc(Cl)cc1Cl | – | > 100 µM | – | > 100 µM | – | > 100 | – | > 100 µM | – | > 100 µM | – | > 100 µM | – | – | – | > 100 µM | > 100 µM | – | – | –
COc1ccc(-c2ccc(/C=N/n3c(COc4ccc(Cl)c(C)c4)nn(CN4CCOCC4)c3=S)o2)c([N+](=O)[O-])c1 | 21.6 | 51.2 µM | 16.5 | 32.5 µM | – | – | 20.5 | 53.7 µM | 38.6 | > 100 µM | 18.5 µM | 55.8 µM | 41.2 | > 100 µM | 29.1 | > 100 µM | > 100 µM | 40.3 | 25.7 | 66.6 µM
N#Cc1c(N/N=C/c2c(Cl)cccc2Cl)nc(N)nc1N1CCCC1 | 1.96 | > 100 µM | 1.34 | 21 µM | 0.722 | 7.11 | 16.4 | > 100 µM | 1.7 | > 100 µM | – | – | 7.14 | > 100 µM | 3.02 | > 100 µM | 97.3 µM | 0.783 | 1.36 | > 100 µM
COC(=O)CCSC(=O)Nc1ccccc1Cl | – | > 100 µM | – | > 100 µM | – | – | – | > 100 µM | – | > 100 µM | – | > 100 µM | – | > 100 µM | – | > 100 µM | – | – | – | > 100 µM
O=C(c1ccccc1)c1ccc(N2C(=O)C3C4c5ccccc5C(/C=C/C(=O)c5ccccn5)(c5ccccc54)C3C2=O)cc1 (centres undefined) | 2.92 | > 100 µM | 1.72 | 3.34 µM | 2.36 | 5.71 | – | – | 3.43 | > 100 µM | 2.67 µM | 9.23 µM | 3.72 | > 100 µM | 1.88 | 4.39 µM | 4.48 µM | 1.86 | 3.4 | > 100 µM
O=C(CO[N+](=O)[O-])OCC(=O)c1ccccc1 | – | > 100 µM | – | > 100 µM | – | – | – | > 100 µM | – | > 100 µM | – | > 100 µM | – | > 100 µM | – | > 100 µM | > 100 µM | – | – | > 100 µM
Cc1ccc(S(=O)(=O)NCc2cccc([N+](=O)[O-])c2)cc1 | – | > 100 µM | – | – | – | > 100 | – | > 100 µM | – | > 100 µM | – | > 100 µM | – | > 100 µM | – | > 100 µM | > 100 µM | – | – | > 100 µM
O=C(/C=C/N1CCN(c2cccc(Cl)c2)CC1)c1ccc(Cl)cc1 | 32.8 | > 100 µM | 24.9 | 50.5 µM | 16.5 | 31.5 | 39.9 | 91.2 µM | 48.4 | > 100 µM | 33.6 µM | > 100 µM | 64.9 | > 100 µM | 27.1 | 69.8 µM | – | – | 19.6 | 42.3 µM
CCOC(=O)C1C(=O)C(=O)N2CCc3c([nH]c4ccccc34)C12 (centres undefined) | – | > 100 µM | – | > 100 µM | – | > 100 | – | > 100 µM | – | > 100 µM | – | – | – | > 100 µM | – | > 100 µM | > 100 µM | – | – | > 100 µM
CC1=CC(=O)N2[C@H](OC[C@@H]2C(C)C)O1 | – | > 100 µM | – | – | – | > 100 | – | > 100 µM | – | > 100 µM | – | > 100 µM | – | > 100 µM | – | > 100 µM | > 100 µM | – | – | > 100 µM
O=[N+]([O-])C1(CO)COC(CCc2ccccc2)OC1 (centres undefined) | – | > 100 µM | – | > 100 µM | – | > 100 | – | > 100 µM | – | > 100 µM | – | > 100 µM | – | – | – | > 100 µM | > 100 µM | – | – | > 100 µM
CCOC(=O)NC/C=C/CO | – | – | – | > 100 µM | – | > 100 | – | > 100 µM | – | > 100 µM | – | > 100 µM | – | > 100 µM | – | > 100 µM | > 100 µM | – | – | > 100 µM
Cc1c2cc[n+](C)cc2c(C)c2c1[nH]c1ccc(Oc3ccccc3)cc12 | – | 21.2 µM and 29 µM | – | > 47.9 µM and 39.6 µM | – | – | – | > 27.3 µM and 21.3 µM | – | 38 µM and 26.3 µM | 1.64 µM and 1.06 µM | 14 µM and 11.4 µM | 0.23 | 0.887 µM and 4.09 µM | – | 18.8 µM and > 100 µM | 33.5 µM and 24.5 µM | – | – | > 61.5 µM and 40.1 µM
CCCCc1c2c(nc3c1CC/C(=C\c1ccccc1)C3=O)CCCC2 | – | 4.75 µM | – | 8.34 µM | – | – | – | 9.52 µM | – | 16.5 µM | – | 17.7 µM | – | 12.6 µM | – | 13.5 µM | 15.2 µM | – | – | 18.9 µM
O=C1COc2cc3c(cc2N1)SCC(=O)N3 | – | > 100 µM | – | > 100 µM | – | > 100 | – | > 100 µM | – | > 100 µM | – | – | – | > 100 µM | – | > 100 µM | > 100 µM | – | – | > 100 µM
NC(=O)NC(=O)C1CCC(=O)N1S(=O)(=O)c1ccc(Cl)cc1 (centres undefined) | – | > 100 µM | – | – | – | > 100 | – | > 100 µM | – | > 100 µM | – | > 100 µM | – | > 100 µM | – | > 100 µM | > 100 µM | – | – | > 100 µM

— PubChem BioAssay (NCI)
